We go through 35 compounds from a melting point compilation (Tetko et al.; mined from patent text by program, amines drawn as free bases though some values may be those of a salt).

As for `O=C1NC(=O)c2cc(CCCCCN3CCC(c4nc(-c5ccncc5)c(-c5ccc(Cl)c(Cl)c5)[nH]4)CC3)ccc21`, the melting point – broadly, the temperature of the solid-liquid transition – is 129 to 134 °C.

`CC(C)OC(=O)c1cc(-n2c(=O)[nH]c3c(c2=O)CCC3)c(Cl)cc1Br` came in with a melting point of 208 to 210 °C. Take `O=Cc1cccc2oc(-c3ccccc3)nc12`: the melting point came to 116 °C. Take `O=C(N[C@@H](Cc1ccccc1)C(=O)O)OCC(Cl)(Cl)Cl`: the melting point amounted to 126 °C. Consider `CN(C(=O)c1ccccc1-c1ccc(F)cc1)C1N(C)C(c2ccc(F)cc2)=NC1(C(F)(F)F)C(F)(F)F` (stereo not given), for which the melting point lay in the range of 112 to 113 °C. For the compound `CC(C)(C)OC(=O)NNC(=O)c1ncc(OCc2ccccc2)c(OCc2ccccc2)c1CCl`, the melting point was in the range of 170 to 171 °C.

For `Cn1nc(C=O)c(Br)c1C(C)(C)CNC(=O)c1ccccc1`, the melting point is 150 to 151 °C. Regarding `CNC(=O)c1ccc(C(F)(F)F)c(N)c1`, the melting point lay within 114 to 115 °C. In turn, `CC(=O)NC[C@H]1CN(c2ccc(N3CC(C)(O[Si](C)(C)C(C)(C)C)C3)c(F)c2)C(=O)O1` displayed a melting point of 137 to 138 °C. `N#Cc1c[nH]cc1-c1ccc(F)c(Cl)c1F` displayed a melting point of 218 to 219 °C. Take `CNC(=O)N(O)C(C)c1ccc(F)c(Br)c1` (stereo not given): the melting point is 137 to 138 °C. Turning to `COc1cc(Nc2nccc(-c3ccc(N4CCN(C)[C@@H](C)C4)nc3)n2)cc(OC)c1OC`, the melting point is 92 to 93 °C. With `CCCc1c(OCCCCCOc2cc3c(cc2C(C)=O)CC[C@@H](C(=O)O)O3)ccc(C(C)=O)c1O` the figure was 94 to 97.5 °C; with `COc1ccc(-n2c(C)nnc2S)cc1`, 214 °C. On to `COc1ccc(NC(=O)Nc2c(Cl)cccc2Cl)cc1OC1CCCC1`, for which the melting point is 203 to 204 °C. Compound `CCOC(=O)c1c(C)nc2c(c1N)c1c(n2Cc2ccccc2)CCCC1` registered a melting point of 146 to 147 °C. Compound `COC(=O)Cc1ccc(OC)c([N+](=O)[O-])c1` came in with a melting point of 101 to 102 °C. The compound `Cc1nn(-c2ccc(O)cc2F)c(=O)n1C(F)F` registered a melting point of 112 to 114 °C.

Take `CCS(=O)(=O)Nc1cc(Cc2c[nH]cn2)ccc1C`: the melting point was in the range of 140 to 152 °C.

`Cc1ccccc1-c1c(CC(=O)O)c(=O)oc2ccc(Cl)cc12`: the melting point is 180 to 183 °C. As for `c1ccc2nc(N3CCN(Cc4n[nH]c5ccccc45)CC3)ccc2c1`, the melting point was in the range of 187 to 188 °C. Then `COc1ccccc1-c1cc(=O)cc(N2CCOCC2)o1`, with 125 to 127 °C.

`CCCCCCC(C)N(C(C)=O)c1ccc(I)cc1` (stereo not given) gave a melting point of 60 to 62 °C. With `CC1(C)[C@H](C=C(Cl)Cl)[C@@H]1C(=O)OCc1cccc(-c2ccc(Br)o2)c1` (relative stereo) the figure was 76.5 to 77 °C; with `COC(=O)c1cc(I)c[nH]c1=O`, 190 to 192 °C.

Compound `OC1CN(C(=S)Nc2ccccc2)Cc2sccc21` (stereo not given) had a melting point of 168 °C. `CCOC(=O)Nc1ccc(C(C)C(O)(Cn2cncn2)c2ccc(F)cc2F)cn1` (stereo not given): the melting point fell in the range of 167 to 168 °C.

Compound `CC(C)c1ccc(Cc2ccc(CC#N)n2C)cc1` registered a melting point of 59 to 64 °C. With `CCc1nc(O)c2c(n1)c(C)nn2C` the figure was 220 to 222 °C; with `COC(=O)Cc1ccc(OCCNC(=O)C2Cc3c(OC)cccc3N2S(=O)(=O)c2ccc(-c3cccc(C(F)(F)F)c3)cc2)cc1` (stereo not given), 64 °C; with `O=[N+]([O-])c1cnn(-c2ccc(C(F)(F)F)cc2Cl)c1`, 106 to 109 °C. Regarding `CN1CCC(NC(=O)c2cc(Cl)ccc2F)CC1`, the melting point lay within 143 to 145 °C. Compound `O=C(NCc1ccco1)Nc1cc(N2CC(c3ccccc3)CC2=O)ccn1` (stereo not given) came in with a melting point of 158 to 160 °C. In turn, `COC(=O)c1c(-c2ccc3ccccc3c2)ccc2ccccc12` gave a melting point of 139 to 140 °C.

In the case of `Cc1ccccc1-n1c(Cn2cnc3c(N)ncnc32)nc2cccc(Cl)c2c1=O`, the melting point lay in the range of 262 to 266 °C.
